Our source for the IC50 values is ChEMBL document CHEMBL1208691, “Synthesis of polyhalo acridones as pH-sensitive fluorescence probes” (Bioorg Med Chem Lett, 2010).

Each structure is given as a SMILES string. Values after ≈ are worked out from the molar mass of the structure shown.

Format in all cases: functional, cell-based
For assay [1], the system named is A-431. Put plainly: Cytotoxicity against human A431 cells by MTT assay.
Assay [2] deals with SK-OV-3. Put plainly: Cytotoxicity against human SKOV3 cells by MTT assay. (Tetrazolium dyes change colour on reduction, which living cells bring about.)
Assay [3] deals with HepG2. Kind of assay: Cytotoxicity against human HepG2 cells by MTT assay.
Assay [4] concerns K562. Put plainly: Cytotoxicity against human K562 cells by MTT assay.
Assay [5] relates to HL-60. Kind of assay: Cytotoxicity against human HL60 cells by MTT assay.

For orientation: IC50 means the concentration needed to halve the response being measured. Higher therefore signals lower potency. As to `NC(=O)c1c(Cl)c(Cl)c2[nH]c3ccccc3c(=O)c2c1Cl`, the 50% inhibitory concentration (IC50) in assay [1] came to 1.2 µg/mL (≈ 3.51 µM); in assay [2], 28 µg/mL (≈ 82 µM); in assay [3], 1.9 µg/mL (≈ 5.56 µM); in assay [4], 7.7 µg/mL (≈ 22.5 µM); in assay [5], 5.7 µg/mL (≈ 16.7 µM).

Consider `NC(=O)c1c(F)c(Cl)c2[nH]c3ccccc3c(=O)c2c1F`, for which the IC50 in assay [1] was 0.08 µg/mL (≈ 0.259 µM); in assay [2] it was 4 µg/mL (≈ 13 µM); in assay [3] it was 0.2 µg/mL (≈ 0.648 µM); in assay [4], 0.2 µg/mL (≈ 0.648 µM); in assay [5], 0.2 µg/mL (≈ 0.648 µM).

In the case of `NC(=O)c1c(F)c(F)c2[nH]c3ccccc3c(=O)c2c1F`, the IC50 in assay [1] was 0.05 µg/mL (≈ 0.171 µM); in assay [2] it was 4.5 µg/mL (≈ 15.4 µM); in assay [3] it was 6.5 µg/mL (≈ 22.2 µM); in assay [4] it was 4.5 µg/mL (≈ 15.4 µM); in assay [5], 2 µg/mL (≈ 6.84 µM).

Consider `NC(=O)c1c(F)c(Cl)c2[nH]c3ccc(Cl)cc3c(=O)c2c1F`, for which the IC50 in assay [1] stood at 0.3 µg/mL (≈ 0.874 µM); in assay [2], 5.3 µg/mL (≈ 15.4 µM); in assay [3], 3.4 µg/mL (≈ 9.91 µM); in assay [4], 3 µg/mL (≈ 8.74 µM); in assay [5] it was 16.6 µg/mL (≈ 48.4 µM).

For the compound `NC(=O)c1c(F)c(F)c2[nH]c3ccc(Cl)cc3c(=O)c2c1F`, the IC50 turned out to be 0.3 µg/mL (≈ 0.918 µM) in assay [1]; 3.9 µg/mL (≈ 11.9 µM) in assay [2]; 4.3 µg/mL (≈ 13.2 µM) in assay [3]; 2.7 µg/mL (≈ 8.27 µM) in assay [4]; 1.3 µg/mL (≈ 3.98 µM) in assay [5].
